This series can be described thus: recombinant UMI read abundance after kanamycin selection (control-corrected) (log10(CPM+1)); higher = more efficient recombination; extreme values may be limits of the assay; sequences stand for … in AGTGCAGAGAAAATCGGCCAGTTTTCTCTGCCTGCAGTCCGCATGCCGTGGGACCCCTTGGGTTCTAACCTGTTGCCTAGATTTATGCAGCGGACTGCCTTTCTCCCAAAGTGATAAACCGG…AGGTTGGTTTCACT; site = the 11-nt donor. Summed up: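 Two replicates each of selected and unselected plating were used in this pooled Escherichia coli screen of donor and donor-binding-loop pairs for the IS621 bridge recombinase. Selection was with IPTG (0.07 mM) and kanamycin. Counts of recombinant UMIs, amplified across the donor–target junction, were converted to CPM, averaged, scaled by control-derived factors and reported as log10(CPM+1).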
Consider “CACCTGGCATGGACCGGTTTTCCCGGTAATCCGTATTTGGA (site CACTTGGCTTC)”, for which the “recombinant UMI read abundance (log10)” value amounted to 0.0384.
For “CACGCCTCATGGACCGGTTTTCCCGGTAATCCGTATTTGAA (site CACGCCTCTTT)” the value was 2.67; for “CACGCCTCATGGACCGGTTTTCCCGGTAATCCGTATTTGGC (site CACGCCTCTGC)”, 2.52; for “CACGGCCCATGGACCGGTTTTCCCGGTAATCCGTATTTGTC (site CACGGCCCTAA)”, 0.214.
Consider “CACGGCCCATGGACCGGTTTTCCCGGTAATCCGTATTTGTC (site CACGGCCCTCA)”, for which the “recombinant UMI read abundance (log10)” value was found to be 0.166.
“CACGGCCCATGGACCGGTTTTCCCGGTAATCCGTATTTGTC (site CACGGCCCTGA)”: the “recombinant UMI read abundance (log10)” value is 1.59.
“CACGGCCCATGGACCGGTTTTCCCGGTAATCCGTATTTGTC (site CACGGCCCTTA)”: the “recombinant UMI read abundance (log10)” value was 0.469.
On to “CACGGCTCATGGACCGGTTTTCCCGGTAATCCGTATTTGCC (site CACGGCTCTGG)”, for which the “recombinant UMI read abundance (log10)” value is 3.3.
On to “CACTACACATGGACCGGTTTTCCCGGTAATCCGTATTTGCT (site CACTACACTAG)”, for which the “recombinant UMI read abundance (log10)” value stood at 2.44.
Consider “CACTACACATGGACCGGTTTTCCCGGTAATCCGTATTTGCT (site CCCTACACTAG)”, for which the “recombinant UMI read abundance (log10)” value came out at 1.16.
For the sequence “CACTACACATGGACCGGTTTTCCCGGTAATCCGTATTTGCT (site CGCTACACTAG)”, the “recombinant UMI read abundance (log10)” value was 0.729.
In the case of “CACTACACATGGACCGGTTTTCCCGGTAATCCGTATTTGCT (site CTCTACACTAG)”, the “recombinant UMI read abundance (log10)” value worked out at 1.79.
As for “CACTCCCCATGGACCGGTTTTCCCGGTAATCCGTATTTGCC (site CACTCCACTGG)”, the “recombinant UMI read abundance (log10)” value amounted to 0.
For “CACTCCCCATGGACCGGTTTTCCCGGTAATCCGTATTTGCC (site CACTCCCCTGG)” the value was 1.23; for “CACTCCCCATGGACCGGTTTTCCCGGTAATCCGTATTTGCC (site CACTCCGCTGG)”, 0; for “CACTCCCCATGGACCGGTTTTCCCGGTAATCCGTATTTGCC (site CACTCCTCTGG)”, 1.43.
For “CACTCCTCATGGACCGGTTTTCCCGGTAATCCGTATTTGCT (site CACTCCTCTAG)” the value was 3.09; for “CACTCCTCATGGACCGGTTTTCCCGGTAATCCGTATTTGCT (site CACTCCTCTCG)”, 0.583; for “CACTCCTCATGGACCGGTTTTCCCGGTAATCCGTATTTGCT (site CACTCCTCTGG)”, 2.08.
“CACTCCTCATGGACCGGTTTTCCCGGTAATCCGTATTTGCT (site CACTCCTCTTG)”: the “recombinant UMI read abundance (log10)” value came to 1.69.
With “CACTCCTCATGGACCGGTTTTCCCGGTAATCCGTATTTGTC (site CACTCCTCTGA)”, the “recombinant UMI read abundance (log10)” value turned out to be 3.16.
On to “CACTCCTCATGGACCGGTTTTCCCGGTAATCCGTATTTGTC (site CACTCCTCTGC)”, for which the “recombinant UMI read abundance (log10)” value came out at 1.7.
On to “CACTCCTCATGGACCGGTTTTCCCGGTAATCCGTATTTGTC (site CACTCCTCTGG)”, for which the “recombinant UMI read abundance (log10)” value is 2.55.
For “CACTCCTCATGGACCGGTTTTCCCGGTAATCCGTATTTGTC (site CACTCCTCTGT)” the value was 3.06; for “CACTCGGCATGGACCGGTTTTCCCGGTAATCCGTATTTGAT (site CACTCGGCTAT)”, 2.18.
In the case of “CACTCGGCATGGACCGGTTTTCCCGGTAATCCGTATTTGTA (site CACTCGGCTTA)”, the “recombinant UMI read abundance (log10)” value is 2.18.
Take “CACTCTACATGGACCGGTTTTCCCGGTAATCCGTATTTGTA (site CACTCTACTTA)”: the “recombinant UMI read abundance (log10)” value was found to be 0.722.
“CACTGATCATGGACCGGTTTTCCCGGTAATCCGTATTTGCT (site CACTGATCTAG)”: the “recombinant UMI read abundance (log10)” value was found to be 2.61.
“CACTGATCATGGACCGGTTTTCCCGGTAATCCGTATTTGGG (site CACTGATCTCC)”: the “recombinant UMI read abundance (log10)” value stood at 1.27.
For the sequence “CACTTCGCATGGACCGGTTTTCCCGGTAATCCGTATTTGGA (site CACTTAGCTTC)”, the “recombinant UMI read abundance (log10)” value worked out at 0.0127.
As to “CACTTCGCATGGACCGGTTTTCCCGGTAATCCGTATTTGGA (site CACTTCGCTTC)”, the “recombinant UMI read abundance (log10)” value was determined as 0.493.
On to “CACTTCGCATGGACCGGTTTTCCCGGTAATCCGTATTTGGA (site CACTTGGCTTC)”, for which the “recombinant UMI read abundance (log10)” value amounted to 0.
Consider “CACTTCGCATGGACCGGTTTTCCCGGTAATCCGTATTTGGA (site CACTTTGCTTC)”, for which the “recombinant UMI read abundance (log10)” value was found to be 0.00357.
For “CACTTGGCATGGACCGGTTTTCCCGGTAATCCGTATTTGCA (site CACTTGGCTTA)”, the “recombinant UMI read abundance (log10)” value came to 0.00954.
Regarding “CACTTGGCATGGACCGGTTTTCCCGGTAATCCGTATTTGCA (site CACTTGGCTTC)”, the “recombinant UMI read abundance (log10)” value came to 0.0203.
As for “CACTTGGCATGGACCGGTTTTCCCGGTAATCCGTATTTGCA (site CACTTGGCTTG)”, the “recombinant UMI read abundance (log10)” value stood at 0.498.
For the sequence “CACTTGGCATGGACCGGTTTTCCCGGTAATCCGTATTTGCA (site CACTTGGCTTT)”, the “recombinant UMI read abundance (log10)” value stood at 0.0216.
As to “CACTTGGCATGGACCGGTTTTCCCGGTAATCCGTATTTGCT (site CACTTGGCTAG)”, the “recombinant UMI read abundance (log10)” value is 0.
As to “CAGAACCCATGGACCGGTTTTCCCGGTAATCCGTATTTGAG (site CAGAACCCTCT)”, the “recombinant UMI read abundance (log10)” value was 1.35.
For “CAGAAGACATGGACCGGTTTTCCCGGTAATCCGTATTTGCA (site AGGAAGACTTG)”, the “recombinant UMI read abundance (log10)” value amounted to 0.401.
For “CAGAAGACATGGACCGGTTTTCCCGGTAATCCGTATTTGCA (site CAGAAGACTTG)”, the “recombinant UMI read abundance (log10)” value is 3.09.
For the sequence “CAGACGACATGGACCGGTTTTCCCGGTAATCCGTATTTGGG (site CAGACGACTCC)”, the “recombinant UMI read abundance (log10)” value amounted to 0.00735.
Turning to “CAGACGACATGGACCGGTTTTCCCGGTAATCCGTATTTGGG (site CAGCCGACTCC)”, the “recombinant UMI read abundance (log10)” value came to 0.0345.
As for “CAGACGACATGGACCGGTTTTCCCGGTAATCCGTATTTGGG (site CAGGCGACTCC)”, the figure is 0.0123.
On to “CAGACGACATGGACCGGTTTTCCCGGTAATCCGTATTTGGG (site CAGTCGACTCC)”, for which the “recombinant UMI read abundance (log10)” value is 0.0666.
Regarding “CAGATCCCATGGACCGGTTTTCCCGGTAATCCGTATTTGGT (site CAGATCCCTAC)”, the “recombinant UMI read abundance (log10)” value was determined as 1.42.
In the case of “CAGCACGCATGGACCGGTTTTCCCGGTAATCCGTATTTGAT (site CAGCACGCTAT)”, the “recombinant UMI read abundance (log10)” value came out at 2.39.
On to “CAGCCGACATGGACCGGTTTTCCCGGTAATCCGTATTTGGG (site CAGACGACTCC)”, for which the “recombinant UMI read abundance (log10)” value was 0.0262.
As for “CAGCCGACATGGACCGGTTTTCCCGGTAATCCGTATTTGGG (site CAGCCGACTCC)”, the figure is 0.188; as for “CAGCCGACATGGACCGGTTTTCCCGGTAATCCGTATTTGGG (site CAGGCGACTCC)”, 0.0119.
For “CAGCCGACATGGACCGGTTTTCCCGGTAATCCGTATTTGGG (site CAGTCGACTCC)” the value was 0.00469.
As for “CAGCGAACATGGACCGGTTTTCCCGGTAATCCGTATTTGGG (site CAGCGAACTCC)”, the “recombinant UMI read abundance (log10)” value amounted to 0.888.
In the case of “CAGCTACCATGGACCGGTTTTCCCGGTAATCCGTATTTGCT (site CAGCTACCTAG)”, the “recombinant UMI read abundance (log10)” value was found to be 0.
As for “CAGCTACCATGGACCGGTTTTCCCGGTAATCCGTATTTGCT (site CCGCTACCTAG)”, the “recombinant UMI read abundance (log10)” value is 0.
For “CAGCTACCATGGACCGGTTTTCCCGGTAATCCGTATTTGCT (site CGGCTACCTAG)” the value was 0.
In the case of “CAGCTACCATGGACCGGTTTTCCCGGTAATCCGTATTTGCT (site CTGCTACCTAG)”, the “recombinant UMI read abundance (log10)” value is 0.
For “CAGGAACCATGGACCGGTTTTCCCGGTAATCCGTATTTGAT (site CAGGAACCTAT)” the value was 0; for “CAGGAACCATGGACCGGTTTTCCCGGTAATCCGTATTTGAT (site CCGGAACCTAT)”, 0.
For the sequence “CAGGAACCATGGACCGGTTTTCCCGGTAATCCGTATTTGAT (site CGGGAACCTAT)”, the “recombinant UMI read abundance (log10)” value came out at 0.
Regarding “CAGGAACCATGGACCGGTTTTCCCGGTAATCCGTATTTGAT (site CTGGAACCTAT)”, the “recombinant UMI read abundance (log10)” value was 0.
As to “CAGGACTCATGGACCGGTTTTCCCGGTAATCCGTATTTGTC (site CAGGACTCTGA)”, the “recombinant UMI read abundance (log10)” value worked out at 3.38.
As for “CAGGGGTCATGGACCGGTTTTCCCGGTAATCCGTATTTGTA (site CAGGGGTCTTA)”, the figure is 3.37.
As for “CAGTAACCATGGACCGGTTTTCCCGGTAATCCGTATTTGAA (site CAGTAACCTTT)”, the “recombinant UMI read abundance (log10)” value came out at 0.255.
For the sequence “CAGTAACCATGGACCGGTTTTCCCGGTAATCCGTATTTGGA (site CAGTAACCTTC)”, the “recombinant UMI read abundance (log10)” value turned out to be 0.00404.
In the case of “CAGTACACATGGACCGGTTTTCCCGGTAATCCGTATTTGAC (site CAGTACACTGT)”, the “recombinant UMI read abundance (log10)” value came out at 3.63.
As for “CAGTAGACATGGACCGGTTTTCCCGGTAATCCGTATTTGTC (site CAGTAGACTGA)”, the figure is 2.13.
Regarding “CAGTAGGCATGGACCGGTTTTCCCGGTAATCCGTATTTGCA (site CAGTAGGCTTG)”, the “recombinant UMI read abundance (log10)” value is 2.82.
Turning to “CAGTCACCATGGACCGGTTTTCCCGGTAATCCGTATTTGTA (site CAGTCACCTTA)”, the “recombinant UMI read abundance (log10)” value was found to be 0.0069.

For the origin of these results see the supplement of paper PMC11208160.
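Note: IS621 bridge recombinase in Escherichia coli cells against a fixed T5 target plasmid.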
